{"source": "patent US10962528B2", "about": "“Blue fluorescent protein monomers and uses thereof” (WISYS TECHNOLOGY FOUNDATION, INC., priority 2015, dated 2021)", "key": {"[1]": {"biological_target": "T1, Sander vitreus (blue walleye) Sandercyanin fluorescent protein (SFP), wild type, SEQ ID NO:1 (recombinant without signal peptide SEQ ID NO:31) (Sander vitreus, UniProt A0A1D5B367)", "T1 construct": "apo monomer, tetramer with biliverdin", "T1 sequence (A0A1D5B367 1-170)": "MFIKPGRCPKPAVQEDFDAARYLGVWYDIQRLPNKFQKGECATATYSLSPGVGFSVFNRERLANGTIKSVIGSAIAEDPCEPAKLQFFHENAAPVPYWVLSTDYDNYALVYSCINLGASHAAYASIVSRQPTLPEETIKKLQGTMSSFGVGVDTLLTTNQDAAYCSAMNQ", "assay": "Binding of biliverdin to (apo) Sandercyanin by fluorescence titration", "description": "FIGS. 11C-11D (C) Titration of apo-SFP (20 uM) with BV IXα measured at 675 nm with λex=375 nm (green) and 630 nm (red). (D) Photo-bleaching kinetics of Sandercyanin and free-biliverdin (BV).\nAddition of the biliverdin to apo-protein results in red-shift in the fluorescence of Sandercyanin to near infra-red (NIR) region. Molar extinction coefficient of holoSFP measured in phosphate buffer of pH 7.4 at 375 nm and 630 nm are 21,000 M^−1 cm^−1 and 13,500 M^−1 cm^−1 respectively and quantum yield is determined to be 0.016. Further, fluorescence spectra is widely spread into the infrared region with minimal overlap with the excitation spectra. We examined the affinity of apoSFP towards BV using fluorescence and determined Kd of 6 μM.\nNative SFP was extracted and purified from the mucus of Blue Walleye from Northwest Ontario by various chromatographic methods as described previously (Chi Li et al). A putative amino acid sequence of SFP was determined from crystal structure of the native protein, confirmed and corrected after whole genome sequencing of Blue Walleye. […]\nAll experiments were performed with purified SFP samples (apo and holo forms) at pH 7.5 and room temperature. UV-Visible absorbance spectra of native and recombinant SFP were recorded from 800 to 200 nm with ultraspec 2100 pro spectrophotometer from Amersham Biosciences. CD spectra were measured on JASCO J-815 Spectropolarimeter. […]"}, "[2]": {"biological_target": "T2, Sander vitreus Sandercyanin fluorescent protein (SFP) variant, Phe 55 to alanine (Sander vitreus, UniProt A0A1D5B367, F36A)", "T2 construct": "preparation not described for this mutant", "T2 sequence (A0A1D5B367 entry or part of it F36A)": "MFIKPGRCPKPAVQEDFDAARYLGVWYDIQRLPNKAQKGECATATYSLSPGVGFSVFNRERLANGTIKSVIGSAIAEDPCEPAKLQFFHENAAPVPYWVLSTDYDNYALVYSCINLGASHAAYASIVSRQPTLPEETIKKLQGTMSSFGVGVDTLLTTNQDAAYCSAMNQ", "assay": "Biliverdin binding of SFP mutant", "conditions": "Phe 55 to alanine mutation"}, "[3]": {"biological_target": "Sander vitreus Sandercyanin fluorescent protein (SFP) variant SFP-A137E, SEQ ID NO:4 (Sander vitreus, UniProt A0A1D5B367, A118E)", "sequence (A0A1D5B367 entry or part of it A118E)": "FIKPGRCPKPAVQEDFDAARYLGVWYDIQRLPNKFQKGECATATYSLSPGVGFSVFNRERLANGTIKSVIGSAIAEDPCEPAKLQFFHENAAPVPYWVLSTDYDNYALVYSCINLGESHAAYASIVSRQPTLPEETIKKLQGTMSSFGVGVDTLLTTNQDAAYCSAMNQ", "assay": "Biliverdin binding of monomeric SFP variant", "description": "(§1) All experiments were performed with purified SFP samples (apo and holo forms) at pH 7.5 and room temperature. UV-Visible absorbance spectra of native and recombinant SFP were recorded from 800 to 200 nm with ultraspec 2100 pro spectrophotometer from Amersham Biosciences. CD spectra were measured on JASCO J-815 Spectropolarimeter. Steady state fluorescence, excitation, binding and photobleaching studies were monitored on Horiba Jobin Yvon Fluoromax-4 fluorimeter. Data analysis were done using Origin6 and Origin8 software. Hydrogen was exchanged with Deuterium by increasing concentrations of D2O to a standard protein concentration. Deuteriated proteins were prepared in the same buffer, incubated for 15 minutes, and monitored for spectral properties.\n(§2) All SFP variants were expressed using E. coli BL21*(DE3) cells. Briefly, each of the SFP monomer mutant genes in pET21a vector were transformed into BL21*(DE3) cells and selected on a LB agar plate containing ampicillin (100 μg/mL). For large scale expression, about 5 mL of the overnight grown primary culture was inoculated into 500 mL of LB medium containing 100 μg/mL ampicillin. Cells were grown at 37° C. until OD600 nm reached to 0.6-0.7. Then, cells were induced using 0.2 mM isopropyl-thiogalactoside (IPTG). Post-induction cells were grown at 20° C. for 20 hours. Thereafter, cells were harvested by centrifugation at 6000 rpm for 10 minutes. Bacterial cell pellet containing SFP as insoluble protein was resuspended in a lysis buffer (20 mM Tris-HCl, pH 7.5, 10 mM EDTA and 1% TritonX). […] Thus, refolded purified SFP was checked using an analytical gel filtration column for oligomerization state and biliverdin (BV) binding by UV-visible absorbance and fluorescence spectroscopy (FIGS. 1A-1D).\n(§3) Characterization of monoSFP Variants—MonoSFP variants were characterized by size-exclusion chromatography during purification of the proteins. […] They have far-red to near infra-red fluorescence with large Stokes shift. […] To test this, we performed detergent (Triton X-100) assays with the monoSFPs and measured absorbance and fluorescence spectra. […]"}, "[4]": {"biological_target": "Sander vitreus Sandercyanin fluorescent protein (SFP) variant SFP-V71E (mSFP1), SEQ ID NO:2 (Sander vitreus, UniProt A0A1D5B367, V52E)", "sequence (A0A1D5B367 entry or part of it V52E)": "as the sequence (A0A1D5B367 entry or part of it A118E) above, with V51E, E117A counted along it", "assay": "Biliverdin binding of monomeric SFP variant", "description": "as §1, §2, §3"}, "[5]": {"biological_target": "Sander vitreus Sandercyanin fluorescent protein (SFP) variant SFP-L135E (mSFP2), SEQ ID NO:3 (Sander vitreus, UniProt A0A1D5B367, L116E)", "sequence (A0A1D5B367 entry or part of it L116E)": "as the sequence (A0A1D5B367 entry or part of it A118E) above, with L115E, E117A counted along it", "assay": "Biliverdin binding of monomeric SFP variant", "description": "as §1, §2, §3"}}, "data": [{"smiles": "C=CC1=C(C)/C(=C/C2=NC(=C\\c3[nH]c(/C=C4\\NC(=O)C(C)=C4C=C)c(C)c3CCC(=O)O)/C(CCC(=O)O)=C2C)NC1=O", "note": "[BV, Biliverdin IXα]", "values": [{"measurement": "Kd", "setting": "[1]; Table 4, wild-type SFP (tetramer)", "value": "5 to 6", "unit": "µM"}, {"measurement": "Kd", "setting": "[1]; affinity of apoSFP towards BV using fluorescence, pH 7.5, room temperature", "value": 6, "unit": "µM"}, {"measurement": "BV binding", "setting": "[2]", "value": "abolished BV binding"}, {"measurement": "Kd", "setting": "[3]", "value": "3 to 5", "unit": "µM"}, {"measurement": "Kd", "setting": "[4]", "value": "4 to 6", "unit": "µM"}, {"measurement": "Kd", "setting": "[5]", "value": "4 to 12", "unit": "µM"}]}]}
